Measured values: paper PMC9785492 (Viruses, 2022)

Tested on: A/PR/8/34 with NA-H274Y
Type: cell-based, Influenza A virus (H1N1)

COC(=O)C1=C(C)NC(C)=C(C(=O)OCC(C)C)C1c1ccccc1[N+](=O)[O-] (stereo not shown) [Nisoldipine]
IC50: 5.94 ± 0.55 µM
